This is an account of results in paper PMC7535918, “Uncovering a novel molecular mechanism for scavenging sialic acids in bacteria” (The Journal of Biological Chemistry, 2020).

Experiment [1] concerns the target T1, RgNanOx (Mediterraneibacter gnavus, UniProt A7B558).
T1 construct: gene RUMGNA_02695; Gfo/Idh/MocA-class Rossmann fold; dimer in the asymmetric unit
The experiment in a line: differential scanning fluorimetry. Format: binding. Conditions: […] NADH, […] protein, […] sodium phosphate pH […]. (In general: In DSF a fluorescence change marks the thermal transition of the protein.)

For experiment [2], the target named is T1, RgNanOx. Kind of experiment: X-ray crystal structure of the complex ([…] and […] A). Conditions: NAD+ bound at Rossmann fold; citric acid from crystallization buffer beside nicotinamide; sodium citrate pH […], PEG […]. The class given is binding.

For the compound `NC(=O)C1=CN([C@@H]2O[C@H](COP(=O)(O)OP(=O)(O)OC[C@H]3O[C@@H](n4cnc5c(N)ncnc54)[C@H](O)[C@@H]3O)[C@@H](O)[C@H]2O)C=CC1` [NADH], the ΔTm result on RgNanOx [1] is “DSF analysis of RgNanOx and EcNanOx, the ΔTm is shown”.

For `NC(=O)c1ccc[n+]([C@@H]2O[C@H](COP(=O)(O)OP(=O)(O)OC[C@H]3O[C@@H](n4cnc5c(N)ncnc54)[C@H](O)[C@@H]3O)[C@@H](O)[C@H]2O)c1` [NAD^+], the “X-ray crystal structure of the complex (2.58 and 1.74 A)” value at RgNanOx [2] was “crystal structure of the recombinant RgNanOx in complex with the NAD^+ cofactor was solved”.
